In patent publication US11566007B2, “Ras inhibitors” (Revolution Medicines, Inc., priority 2019, dated 2023):
pEC50, pIC50: −log10 of the molar value.

Columns and labels:
KRAS G12D = KRAS G12D (Homo sapiens (Human), UniProt P01116+P62937, G12D); experiment: Ras-Raf (BRAF RBD) disruption / FRET / MOA assay, KRAS G12D; type: biochemical; settings: Ras-Raf disruption/FRET/MOA assay; class symbols; read-out: KRAS G12D FRET data IC50
Method in brief: (§1)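 Compounds, top final concentration 30 μM in 10-point 3-fold series, incubated 3 hours at 25° C with nucleotide-loaded Ras, cyclophilin A and BRAF RBD.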

NRAS WT = NRAS WT (Homo sapiens (Human), UniProt P01111+P62937); experiment: Ras-Raf (BRAF RBD) disruption / FRET / MOA assay, NRAS WT; type: biochemical; settings: read-out: IC50* NRAS WT FRET data
Sequence of NRAS WT (P01111 whole entry): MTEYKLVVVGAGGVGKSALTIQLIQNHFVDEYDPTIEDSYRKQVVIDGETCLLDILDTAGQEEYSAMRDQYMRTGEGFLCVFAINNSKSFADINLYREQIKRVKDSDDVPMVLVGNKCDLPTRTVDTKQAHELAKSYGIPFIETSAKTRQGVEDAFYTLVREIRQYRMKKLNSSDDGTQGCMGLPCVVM
Sequence of NRAS WT (P62937 whole entry): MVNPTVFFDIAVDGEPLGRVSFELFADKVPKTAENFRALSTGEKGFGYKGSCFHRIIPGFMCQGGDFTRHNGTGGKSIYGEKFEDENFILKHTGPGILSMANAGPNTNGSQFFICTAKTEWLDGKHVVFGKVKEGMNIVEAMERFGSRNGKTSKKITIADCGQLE
Method in brief: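 TR-FRET disruption of nucleotide-loaded Ras binding to BRAF RBD via compound-driven ternary complex with cyclophilin A. Compound as 10-point 3-fold series from 30 μM final, 3 h at 25° C, then anti-His Eu-W1024 (10 nM) and anti-GST allophycocyanin (50 nM) for 1.5 h. IC50 from decreased FRET ratio versus DMSO.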

[1] = tested on: NCI-H358 cells (K-Ras G12C); experiment: Potency assay: pERK in NCI-H358 cells; type: cell-based, human; settings: Homo sapiens, NCI-H358; H358 KRAS G12C; read-out: pERK EC50
Method in brief: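 pERK decrease read by AlphaLISA SureFire p-ERK1/2 or In-Cell Western after 4 h compound exposure at 37 °C, 5% CO2.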

NRAS G12C = NRAS G12C (Homo sapiens (Human), UniProt P01111+P62937, G12C); experiment: Ras-Raf (BRAF RBD) disruption / FRET / MOA assay, NRAS G12C; type: biochemical; settings: read-out: IC50* NRAS G12C FRET data
Sequence of NRAS G12C (P01111 whole entry G12C): as the sequence (P01111 whole entry) above, with G12C counted along it
Sequence of NRAS G12C (P62937 whole entry): as the sequence (P62937 whole entry) above
Method in brief: as §1

K-Ras G12C = K-Ras G12C (Homo sapiens (Human), UniProt P01116+P62937, G12C); experiment: Ras-Raf (BRAF RBD) disruption / FRET / MOA assay, KRAS G12C; type: biochemical; settings: KRAS G12C; Ras-Raf disruption/FRET/MOA assay; read-out: IC50* KRAS G12C FRET data
Sequence of K-Ras G12C (P01116-2 other isoform, or with tags, fused parts or gaps G12C): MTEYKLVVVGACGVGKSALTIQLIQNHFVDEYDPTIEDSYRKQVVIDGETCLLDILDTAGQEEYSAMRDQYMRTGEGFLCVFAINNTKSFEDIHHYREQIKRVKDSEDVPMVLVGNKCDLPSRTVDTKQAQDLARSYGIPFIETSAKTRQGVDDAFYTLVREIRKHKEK
Sequence of K-Ras G12C (P62937 whole entry): as the sequence (P62937 whole entry) above
Method in brief: as §1

KRAS G12V = KRAS G12V (Homo sapiens (Human), UniProt P01116+P62937, G12V); experiment: Ras-Raf (BRAF RBD) disruption / FRET / MOA assay, KRAS G12V; type: biochemical; settings: read-out: IC50* KRAS G12V FRET data
Sequence of KRAS G12V (P01116-2 other isoform, or with tags, fused parts or gaps G12V): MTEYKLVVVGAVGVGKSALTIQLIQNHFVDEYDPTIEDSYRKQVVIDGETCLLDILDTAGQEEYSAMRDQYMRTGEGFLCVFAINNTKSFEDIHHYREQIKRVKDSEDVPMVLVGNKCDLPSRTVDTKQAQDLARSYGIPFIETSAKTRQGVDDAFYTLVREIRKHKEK
Sequence of KRAS G12V (P62937 whole entry): as the sequence (P62937 whole entry) above
Method in brief: as §1

KRAS G13D = KRAS G13D (Homo sapiens (Human), UniProt P01116+P62937, G13D); experiment: Ras-Raf (BRAF RBD) disruption / FRET / MOA assay, KRAS G13D; type: biochemical; settings: read-out: IC50* KRAS G13D FRET data
Sequence of KRAS G13D (P01116-2 other isoform, or with tags, fused parts or gaps G13D): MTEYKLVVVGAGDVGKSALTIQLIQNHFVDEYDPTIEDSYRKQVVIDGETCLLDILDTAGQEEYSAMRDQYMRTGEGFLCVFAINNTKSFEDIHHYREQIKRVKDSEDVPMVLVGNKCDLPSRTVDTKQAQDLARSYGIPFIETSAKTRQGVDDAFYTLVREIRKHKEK
Sequence of KRAS G13D (P62937 whole entry): as the sequence (P62937 whole entry) above
Method in brief: as §1

Sequence of KRAS G12D (P01116-2 other isoform, or with tags, fused parts or gaps G12D): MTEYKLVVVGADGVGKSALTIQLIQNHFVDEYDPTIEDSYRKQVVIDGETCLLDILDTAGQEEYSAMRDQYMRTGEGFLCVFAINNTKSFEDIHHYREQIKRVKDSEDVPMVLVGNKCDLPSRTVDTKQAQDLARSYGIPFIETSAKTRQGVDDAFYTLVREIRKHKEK
Sequence of KRAS G12D (P62937 whole entry): as the sequence (P62937 whole entry) above

| SMILES | pIC50 (KRAS G12D) | pIC50 (NRAS WT) | pEC50 [1] | pIC50 (NRAS G12C) | pIC50 (K-Ras G12C) | pIC50 (KRAS G12V) | pIC50 (KRAS G13D) |
| --- | --- | --- | --- | --- | --- | --- | --- |
| C=CC(=O)N1CCOC2(CCN(C(=O)N(C)[C@H](C(=O)N[C@H]3Cc4cc(CF)cc(c4)-c4ccc5c(c4)c(c(-c4cccnc4[C@H](C)OC)n5CC(F)(F)F)CC(C)(C)COC(=O)[C@@H]4CCCN(N4)C3=O)C(C)C)CC2)C1 (atropisomer, axis not shown) [Example A605] | 6.00 to 7.00 | 7.00 to 8.00 | > 5.30 | 6.00 to 7.00 | 6.00 to 7.00 | 6.00 to 7.00 | 6.00 to 7.00 |
| C=CC(=O)N1CCOC2(CCN(C(=O)N(C)[C@H](C(=O)N[C@H]3Cc4cccc(c4)-c4ccc5c(c4)c(c(-c4cccnc4[C@H](C)OC)n5CC(F)(F)F)CC(C)(C)COC(=O)[C@@H]4CCCN(N4)C3=O)C(C)C)CC2)C1 (atropisomer, axis not shown) [Example A608] | 6.00 to 7.00 | 6.00 to 7.00 | > 5.30 | 6.00 to 7.00 | 6.00 to 7.00 | 6.00 to 7.00 | 6.00 to 7.00 |
| C=CC(=O)N1CCC[C@@H]2CN(C(=O)N(C)[C@H](C(=O)N[C@H]3Cc4nc(cs4)-c4ccc5c(c4)c(c(-c4cccnc4[C@H](C)OC)n5CC)CC(C)(C)COC(=O)[C@@H]4CCCN(N4)C3=O)C(C)C)C[C@@H]21 (atropisomer, axis not shown) [Example A619] | 5.00 to 6.00 | 5.00 to 6.00 | > 5.30 | 6.00 to 7.00 | 6.00 to 7.00 | 5.00 to 6.00 | 5.00 to 6.00 |
| CCn1c(-c2cccnc2[C@H](C)OC)c2c3cc(ccc31)-c1csc(n1)C[C@H](NC(=O)[C@H](C(C)C)N(C)C(=O)N1CCC3(CC1)CN(C(=O)/C=C/CF)C3)C(=O)N1CCC[C@H](N1)C(=O)OCC(C)(C)C2 (atropisomer, axis not shown) [Example A622] | 6.00 to 7.00 | 6.00 to 7.00 | > 5.30 | 7.00 to 8.00 | 7.00 to 8.00 | 6.00 to 7.00 | 6.00 to 7.00 |
| CCn1c(-c2cccnc2[C@H](C)OC)c2c3cc(ccc31)-c1csc(n1)C[C@H](NC(=O)[C@@H](F)COC1CN(C(=O)C#CC(C)(C)N(C)C)C1)C(=O)N1CCC[C@H](N1)C(=O)OCC(C)(C)C2 (atropisomer, axis not shown) [Example A626] | 5.00 to 6.00 | 5.00 to 6.00 | > 5.30 | > 8.00 | > 8.00 | 5.00 to 6.00 | 5.00 to 6.00 |
| CO[C@@H](C)c1ncccc1-c1c2c3cc(ccc3n1CC(F)(F)F)N1CCO[C@@H](C[C@H](NC(=O)[C@H](C(C)C)N3CC[C@@]4(CCN(C(=O)C#CC(C)(C)N(C)C)C4)C3=O)C(=O)N3CCC[C@H](N3)C(=O)OCC(C)(C)C2)C1 (atropisomer, axis not shown) [Example A628] | < 5.00 | < 5.00 | > 5.30 | > 8.00 | > 8.00 | 5.00 to 6.00 | < 5.00 |
| C=CC(=O)N(C)CCN1CCN(C(=O)N(C)[C@H](C(=O)N[C@H]2Cc3nc(cs3)-c3ccc4c(c3)c(c(-c3cccnc3[C@H](C)OC)n4CC)CC(C)(C)COC(=O)[C@@H]3CCCN(N3)C2=O)C(C)C)CC1 (atropisomer, axis not shown) [Example A630] | 5.00 to 6.00 | 6.00 to 7.00 | > 5.30 | 6.00 to 7.00 | 6.00 to 7.00 | 6.00 to 7.00 | 5.00 to 6.00 |
| C=CC(=O)N(C)[C@H]1CN(C(=O)N(C)[C@H](C(=O)N[C@H]2Cc3nc(cs3)-c3ccc4c(c3)c(c(-c3cccnc3[C@H](C)OC)n4CC)CC(C)(C)COC(=O)[C@@H]3CCCN(N3)C2=O)C(C)C)C[C@H]1F (atropisomer, axis not shown) [Example A631] | 5.00 to 6.00 | 6.00 to 7.00 | > 5.30 | 7.00 to 8.00 | 6.00 to 7.00 | 6.00 to 7.00 | 6.00 to 7.00 |
| C=CC(=O)N1CC[C@H](C(=O)N(C)[C@@H](CC(F)(F)F)C(=O)N[C@H]2Cc3cccc(c3)-c3ccc4c(c3)c(c(-c3cccnc3[C@H](C)OC)n4CC)CC(C)(C)COC(=O)[C@@H]3CCCN(N3)C2=O)C1 (atropisomer, axis not shown) [Example A639] | < 5.00 | 5.00 to 6.00 | > 5.30 | 6.00 to 7.00 | 6.00 to 7.00 | 5.00 to 6.00 | < 5.00 |
| CCn1c(-c2cccnc2[C@H](C)OC)c2c3cc(ccc31)N1CCO[C@@H](C[C@H](NC(=O)[C@@H](COC3CCN(C(=O)C#CC(C)(C)N(C)C)CC3)C(C)C)C(=O)N3CCC[C@H](N3)C(=O)OCC(C)(C)C2)C1 (atropisomer, axis not shown) [Example A643, (2R)-2-(((1-(4-(dimethylamino)-4-methylpent-2-ynoyl)piperidin-4-yl)oxy)methyl)-N-((2^2S,6^3S,4S)-1^1-ethyl-1^2-(2-((S)-1-methoxyethyl)pyridin-3-yl)-10,10-dimethyl-5,7-dioxo-6^1,6^2,6^3,6^4,6^5,6^6-hexahydro-1^1H-8-oxa-2(4,2)-morpholina-1(5,3)-indola-6(1,3)-pyridazinacycloundecaphane-4-yl)-3-methylbutanamide] | < 5.00 | < 5.00 | > 5.30 | 7.00 to 8.00 | 7.00 to 8.00 | < 5.00 | < 5.00 |
| CCn1c(-c2cccnc2[C@H](C)OC)c2c3cc(ccc31)-c1cccc(c1)C[C@H](NC(=O)[C@@H](COC1CN(C(=O)C#C[C@H]3COCCN3C)C1)C(C)C)C(=O)N1CCC[C@H](N1)C(=O)OCC(C)(C)C2 (atropisomer, axis not shown) [Example A644] | < 5.00 | < 5.00 | > 5.30 | 7.00 to 8.00 | 7.00 to 8.00 | < 5.00 | < 5.00 |
| CCn1c(-c2cccnc2[C@H](C)OC)c2c3cc(ccc31)-c1cccc(c1)C[C@H](NC(=O)[C@@H](COC1CN(C(=O)C#C[C@@H]3OCCCN3C)C1)C(C)C)C(=O)N1CCC[C@H](N1)C(=O)OCC(C)(C)C2 (atropisomer, axis not shown) [Example A648] | < 5.00 | 5.00 to 6.00 | > 5.30 | 6.00 to 7.00 | 6.00 to 7.00 | < 5.00 | < 5.00 |
| CCn1c(-c2cccnc2[C@H](C)OC)c2c3cc(ccc31)-c1cnc(o1)C[C@H](NC(=O)[C@@H](COC1CN(C(=O)C#CC(C)(C)N(C)C)C1)C(C)C)C(=O)N1CCC[C@H](N1)C(=O)OCC(C)(C)C2 (atropisomer, axis not shown) [Example A649] | < 5.00 | < 5.00 | > 5.30 | 7.00 to 8.00 | 7.00 to 8.00 | < 5.00 | < 5.00 |
| CCn1c(-c2cccnc2[C@H](C)OC)c2c3cc(ccc31)-c1csc(n1)C[C@H](NC(=O)[C@H](C(C)C)N(C)C(=O)N1CCC3(CC1)CN(C(=O)/C=C/CN(C)C)C3)C(=O)N1CCC[C@H](N1)C(=O)OCC(C)(C)C2 (atropisomer, axis not shown) [Example A650] | 6.00 to 7.00 | 6.00 to 7.00 | > 5.30 | 7.00 to 8.00 | 7.00 to 8.00 | 6.00 to 7.00 | 6.00 to 7.00 |
| CCn1c(-c2cccnc2[C@H](C)OC)c2c3cc(ccc31)-c1csc(n1)C[C@H](NC(=O)[C@H](C(C)C)N(C)C(=O)N1CCC13CN(C(=O)C#CC(C)(C)N(C)C)C3)C(=O)N1CCC[C@H](N1)C(=O)OCC(C)(C)C2 (atropisomer, axis not shown) [Example A656] | 5.00 to 6.00 | 6.00 to 7.00 | > 5.30 | 6.00 to 7.00 | 6.00 to 7.00 | 5.00 to 6.00 | 5.00 to 6.00 |
| CO[C@@H](C)c1ncccc1-c1c2c3cc(ccc3n1CC(F)(F)F)-c1csc(n1)C[C@H](NC(=O)[C@H](C(C)C)N(C)C(=O)N1CCN(C(=O)/C=C/CN(C)C)C3(CC3)C1)C(=O)N1CCC[C@H](N1)C(=O)OCC(C)(C)C2 (atropisomer, axis not shown) [Example A664] | 7.00 to 8.00 | 7.00 to 8.00 | > 5.30 | 7.00 to 8.00 | 7.00 to 8.00 | 6.00 to 7.00 | 7.00 to 8.00 |
| C=CC(=O)N1CC(N2CCN(C(=O)N(C)[C@H](C(=O)N[C@H]3Cc4nc(cs4)-c4ccc5c(c4)c(c(-c4cccnc4[C@H](C)OC)n5CC)CC(C)(C)COC(=O)[C@@H]4CCCN(N4)C3=O)C(C)C)CC2)C1 (atropisomer, axis not shown) [Example A668] | 5.00 to 6.00 | 6.00 to 7.00 | > 5.30 | 7.00 to 8.00 | 7.00 to 8.00 | 6.00 to 7.00 | 5.00 to 6.00 |
